What was measured:
[1] = test system: late watergrass; test: Test Example 1: herbicidal activity, application before weed generation under submerged conditions (Table 16, symbol A); format: in vivo, late watergrass (Echinochloa oryzicola); settings: 320 g/ha applied herbicide
How it was run: (§1)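 Emulsion formulation, water-diluted to set dose, was put onto the flooded surface (4 cm depth, alluvial soil) the same day weeds were sown and 2.5-leaf rice transplanted. After 3 weeks at 25-30 °C under glass, each species was rated 0 (≤5% kill) to 5 (≥90% kill).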

[2] = test system: Japanese bulrush; test: Test Example 1: herbicidal activity, application before weed generation under submerged conditions (Table 16, symbol B); format: in vivo, Japanese bulrush (Schoenoplectus juncoides); settings: 320 g/ha applied herbicide
How it was run: as §1

[3] = test system: oval-leafed pondweed; test: Test Example 1: herbicidal activity, application before weed generation under submerged conditions (Table 16, symbol C); format: in vivo, oval-leafed pondweed (Monochoria vaginalis); settings: 320 g/ha applied herbicide
How it was run: as §1

[4] = test system: late watergrass; test: Test Example 2: herbicidal activity, application during weed generation under submerged conditions (Table 17, symbol A); format: in vivo, late watergrass (Echinochloa oryzicola); settings: AAH 320 g/ha; application during weed generation, submerged conditions
How it was run: (§2)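 3-wk visual-criteria score after one water-surface dose. Emulsion formulation, water-diluted to set rate; applied at 1–2 leaf stage; alluvial soil, 4 cm standing water; seeds co-sown; greenhouse 25–30° C.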

[5] = test system: Japanese bulrush; test: Test Example 2: herbicidal activity, application during weed generation under submerged conditions (Table 17, symbol B); format: in vivo, Japanese bulrush (Schoenoplectus juncoides); settings: AAH 320 g/ha; application during weed generation, submerged conditions
How it was run: as §2

[6] = test system: oval-leafed pondweed; test: Test Example 2: herbicidal activity, application during weed generation under submerged conditions (Table 17, symbol C); format: in vivo, oval-leafed pondweed (Monochoria vaginalis); settings: AAH 320 g/ha; application during weed generation, submerged conditions
How it was run: as §2

[7] = test system: barnyard grass; test: Test Example 3: herbicidal effect by foliage application, Wagner pot (Table 18, symbol H); format: in vivo, barnyard grass (Echinochloa crus-galli); settings: 320 g/ha
How it was run: (§3)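 Plants were sown in alluvial soil held under 0.1–0.5 cm standing water and grown 14 days in a greenhouse at 25–30 °C. An emulsifiable formulation, water-diluted to the set dose, was then sprayed onto the foliage, and effects were scored three weeks later using previously defined criteria.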

[8] = test system: Chinese sprangletop; test: Test Example 3: herbicidal effect by foliage application, Wagner pot (Table 18, symbol D); format: in vivo, chinese sprangletop (Leptochloa chinensis); settings: 320 g/ha
How it was run: as §3

[9] = test system: rice flat sedge; test: Test Example 3: herbicidal effect by foliage application, Wagner pot (Table 18, symbol E); format: in vivo, rice flat sedge (Cyperus iria); settings: 320 g/ha
How it was run: as §3

Compound: Cc1nn(C)c(=O)c(-c2c(-c3ccc(OCCOC(C)C)cc3)sc3ccccc23)c1O [1-226]
- Herbicidal effect on A: late watergrass (grade 0-5) [1]: 5 (Herbicidal rate of 90% or more (almost completely withered))
- Herbicidal effect on B: Japanese bulrush (grade 0-5) [2]: 4 (Herbicidal rate of 70% or more and less than 90%)
- Herbicidal effect on C: oval-leafed pondweed (grade 0-5) [3]: 4 (Herbicidal rate of 70% or more and less than 90%)
- herbicidal effect rating, A: late watergrass [4]: 5 (Herbicidal rate of 90% or more (almost completely withered))
- herbicidal effect rating, B: Japanese bulrush [5]: 3 (Herbicidal rate of 40% or more and less than 70%)
- herbicidal effect rating, C: oval-leafed pondweed [6]: 3 (Herbicidal rate of 40% or more and less than 70%)
- herbicidal effect on H (barnyard grass), rating 0-5 [7]: 5 (Herbicidal rate of 90% or more (almost completely withered))
- herbicidal effect on D (Chinese sprangletop), rating 0-5 [8]: 5 (Herbicidal rate of 90% or more (almost completely withered))
- herbicidal effect on E (rice flat sedge), rating 0-5 [9]: 4 (Herbicidal rate of 70% or more and less than 90%)

From patent publication US20230085307A1, “PYRIDAZINONE COMPOUND AND HERBICIDE” (NISSAN CHEMICAL CORPORATION, priority 2019, published 2023)
